From patent US20150105252A1, “SUBSTITUTED PYRAZOLES AS HERBICIDES” (E I DU PONT DE NEMOURS AND COMPANY, priority 2013, published 2015)

Experiments:
foxtail, giant = assay: Test A preemergence; format: in vivo, Setaria faberii; settings: preemergence; for Foxtail, Giant plant response rating (0 to 100 scale): 125 g ai/ha, visual injury approx. 10 days after treatment; for Foxtail, Giant plant response rating: 500 g ai/ha, visual injury after approx. 10 days, 0 to 100 scale (0 no effect, 100 complete control)
How it was run: (§1)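 Injury readout: eye-scored versus untreated controls, 0 to 100. Exposure period: ~10 days, greenhouse. Application: soil-directed spray over sown seed (pre) or spray on seedlings 2–10 cm tall with one or two leaves (post), compound carried in non-phytotoxic solvent including surfactant.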

pigweed [1] = assay: Test A preemergence; format: in vivo, Amaranthus retroflexus; settings: preemergence; for Pigweed plant response rating (0 to 100 scale): 125 g ai/ha, visual injury approx. 10 days after treatment; for Pigweed plant response rating: 500 g ai/ha, visual injury after approx. 10 days, 0 to 100 scale (0 no effect, 100 complete control)
How it was run: as §1

corn [2] = assay: Test A preemergence; format: in vivo, Zea mays; settings: preemergence; for Corn plant response rating (0 to 100 scale): 125 g ai/ha, visual injury approx. 10 days after treatment; for Corn plant response rating: 500 g ai/ha, visual injury after approx. 10 days, 0 to 100 scale (0 no effect, 100 complete control)
How it was run: as §1

wheat [3] = assay: Test A postemergence; format: in vivo, Triticum aestivum; settings: Postemergence
How it was run: as §1

wheat [4] = assay: Test C preemergence; format: in vivo, Triticum aestivum; settings: preemergence; for Plant response rating, Wheat: 125 g ai/ha, scale 0 to 100, 0 = no effect, 100 = complete control
How it was run: (§2)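 Seeds were sown in a loam soil–sand blend and sprayed preemergence with compounds formulated in a non-phytotoxic solvent mixture containing surfactant. Postemergence plants, grown in peat/vermiculite medium to 2–18 cm (1- to 4-leaf stage), received the same formulation. After 13 to 15 days in a greenhouse, injury was rated visually against controls (0 = no effect, 100 = complete control).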

corn [5] = assay: Test C preemergence; format: in vivo, Zea mays; settings: preemergence; for Plant response rating, Corn: 125 g ai/ha, scale 0 to 100, 0 = no effect, 100 = complete control
How it was run: as §2

crabgrass, large = assay: Test C preemergence; format: in vivo, Digitaria sanguinalis; settings: preemergence; for Plant response rating, Crabgrass, Large: 125 g ai/ha, scale 0 to 100, 0 = no effect, 100 = complete control
How it was run: as §2

johnsongrass = assay: Test C preemergence; format: in vivo, Sorghum halepense; settings: preemergence; for Plant response rating, Johnsongrass: 125 g ai/ha, scale 0 to 100, 0 = no effect, 100 = complete control
How it was run: as §2

morningglory = assay: Test C preemergence; format: in vivo, Ipomoea coccinea; settings: preemergence; for Plant response rating, Morningglory: 125 g ai/ha, scale 0 to 100, 0 = no effect, 100 = complete control
How it was run: as §2

pigweed [6] = assay: Test C preemergence; format: in vivo, Amaranthus retroflexus; settings: preemergence; for Plant response rating, Pigweed: 125 g ai/ha, scale 0 to 100, 0 = no effect, 100 = complete control
How it was run: as §2

barnyardgrass = assay: Test C preemergence; format: in vivo, Echinochloa crus-galli; settings: preemergence; for Plant response rating, Barnyardgrass: 125 g ai/ha, scale 0 to 100, 0 = no effect, 100 = complete control
How it was run: as §2

waterhemp = assay: Test C preemergence; format: in vivo, Amaranthus rudis; settings: preemergence; for Plant response rating, Waterhemp: 125 g ai/ha, scale 0 to 100, 0 = no effect, 100 = complete control
How it was run: as §2

velvetleaf = assay: Test C preemergence; format: in vivo, Abutilon theophrasti; settings: preemergence; for Plant response rating, Velvetleaf: 125 g ai/ha, scale 0 to 100, 0 = no effect, 100 = complete control
How it was run: as §2

[7] = 125 g ai/ha, 0 to 100 scale, 0 no effect, 100 complete control
[8] = 500 g ai/ha, 0 to 100 scale (0 no effect, 100 complete control)
[9] = 31 g ai/ha, visual rating, scale 0 to 100 (0 no effect, 100 complete control), 13 to 15 days
[10] = 62 g ai/ha, scale 0 to 100 (0 no effect, 100 complete control), 13 to 15 days
[11] = 250 g ai/ha, scale 0 to 100, 0 is no effect, 100 is complete control

## CCNC(=O)c1cc(CC)n(Cc2ccnc(C(F)(F)F)c2)n1 [Compound 196]
foxtail, giant
  Foxtail, Giant plant response rating (0 to 100 scale): 100
  Foxtail, Giant plant response rating: 90
Pigweed [1]
  Pigweed plant response rating (0 to 100 scale): 100
  Pigweed plant response rating: 100
Corn [2]
  Corn plant response rating (0 to 100 scale): 10
  Corn plant response rating: 90
Wheat [3]; [7]
  Wheat plant response rating: 40
Wheat [3]; [8]
  Wheat plant response rating: 90
Wheat [4]; [9]
  Wheat plant response rating: 0
Wheat [4]; [10]
  Wheat plant response rating: 65
Wheat [4]; 13 to 15 days
  Plant response rating, Wheat: 85
Wheat [4]; [11]
  Wheat plant response rating: 80
Corn [5]; [9]
  Corn plant response rating: 5
Corn [5]; [10]
  Corn plant response rating: 5
Corn [5]; 13 to 15 days
  Plant response rating, Corn: 65
Corn [5]; [11]
  Corn plant response rating: 98
crabgrass, large; [9]
  Crabgrass, Large plant response rating: 98
crabgrass, large; [10]
  Crabgrass, Large plant response rating: 98
crabgrass, large; 13 to 15 days
  Plant response rating, Crabgrass, Large: 100
crabgrass, large; [11]
  Crabgrass, Large plant response rating: 100
johnsongrass; [9]
  Johnsongrass plant response rating: 55
johnsongrass; [10]
  Johnsongrass plant response rating: 85
johnsongrass; 13 to 15 days
  Plant response rating, Johnsongrass: 100
johnsongrass; [11]
  Johnsongrass plant response rating: 100
morningglory; [9]
  Morningglory plant response rating: 98
morningglory; [10]
  Morningglory plant response rating: 98
morningglory; 13 to 15 days
  Plant response rating, Morningglory: 100
morningglory; [11]
  Morningglory plant response rating: 100
Pigweed [6]; [9]
  Pigweed plant response rating: 98
Pigweed [6]; [10]
  Pigweed plant response rating: 98
Pigweed [6]; 13 to 15 days
  Plant response rating, Pigweed: 100
Pigweed [6]; [11]
  Pigweed plant response rating: 100
barnyardgrass; [9]
  Barnyardgrass plant response rating: 98
barnyardgrass; [10]
  Barnyardgrass plant response rating: 100
barnyardgrass; 13 to 15 days
  Plant response rating, Barnyardgrass: 100
barnyardgrass; [11]
  Barnyardgrass plant response rating: 100
waterhemp; [9]
  Waterhemp plant response rating: 100
waterhemp; [10]
  Waterhemp plant response rating: 100
waterhemp; 13 to 15 days
  Plant response rating, Waterhemp: 100
waterhemp; [11]
  Waterhemp plant response rating: 100
velvetleaf; [9]
  Velvetleaf plant response rating: 40
velvetleaf; [10]
  Velvetleaf plant response rating: 100
velvetleaf; 13 to 15 days
  Plant response rating, Velvetleaf: 100
velvetleaf; [11]
  Velvetleaf plant response rating: 100

## Cc1cc(C(=O)NC(C)C)nn1Cc1ccnc(C(F)(F)F)c1 [Compound 197]
foxtail, giant
  Foxtail, Giant plant response rating (0 to 100 scale): 100
  Foxtail, Giant plant response rating: 100
Pigweed [1]
  Pigweed plant response rating (0 to 100 scale): 100
  Pigweed plant response rating: 100
Corn [2]
  Corn plant response rating (0 to 100 scale): 0
  Corn plant response rating: 90
Wheat [3]; [7]
  Wheat plant response rating: 0
Wheat [3]; [8]
  Wheat plant response rating: 60
Wheat [4]; [9]
  Wheat plant response rating: 0
Wheat [4]; [10]
  Wheat plant response rating: 0
Wheat [4]; 13 to 15 days
  Plant response rating, Wheat: 5
Wheat [4]; [11]
  Wheat plant response rating: 80
Corn [5]; [9]
  Corn plant response rating: 5
Corn [5]; [10]
  Corn plant response rating: 5
Corn [5]; 13 to 15 days
  Plant response rating, Corn: 45
Corn [5]; [11]
  Corn plant response rating: 95
crabgrass, large; [9]
  Crabgrass, Large plant response rating: 100
crabgrass, large; [10]
  Crabgrass, Large plant response rating: 100
crabgrass, large; 13 to 15 days
  Plant response rating, Crabgrass, Large: 100
crabgrass, large; [11]
  Crabgrass, Large plant response rating: 100
johnsongrass; [9]
  Johnsongrass plant response rating: 10
johnsongrass; [10]
  Johnsongrass plant response rating: 40
johnsongrass; 13 to 15 days
  Plant response rating, Johnsongrass: 80
johnsongrass; [11]
  Johnsongrass plant response rating: 85
morningglory; [9]
  Morningglory plant response rating: 75
morningglory; [10]
  Morningglory plant response rating: 100
morningglory; 13 to 15 days
  Plant response rating, Morningglory: 100
morningglory; [11]
  Morningglory plant response rating: 100
Pigweed [6]; [9]
  Pigweed plant response rating: 100
Pigweed [6]; [10]
  Pigweed plant response rating: 100
Pigweed [6]; 13 to 15 days
  Plant response rating, Pigweed: 100
Pigweed [6]; [11]
  Pigweed plant response rating: 100
barnyardgrass; [9]
  Barnyardgrass plant response rating: 65
barnyardgrass; [10]
  Barnyardgrass plant response rating: 98
barnyardgrass; 13 to 15 days
  Plant response rating, Barnyardgrass: 100
barnyardgrass; [11]
  Barnyardgrass plant response rating: 100
waterhemp; [9]
  Waterhemp plant response rating: 100
waterhemp; [10]
  Waterhemp plant response rating: 100
waterhemp; 13 to 15 days
  Plant response rating, Waterhemp: 100
waterhemp; [11]
  Waterhemp plant response rating: 100
velvetleaf; [9]
  Velvetleaf plant response rating: 25
velvetleaf; [10]
  Velvetleaf plant response rating: 90
velvetleaf; 13 to 15 days
  Plant response rating, Velvetleaf: 65
velvetleaf; [11]
  Velvetleaf plant response rating: 100
